Results on 29 molecules are retold here after doi:10.1101/2025.06.19.660642, “Discovery of orally bioavailable Zika and West Nile Virus antiviral compounds targeting the NS2B-NS3 protease” (bioRxiv, 2025).

Where two headings read alike, the source gives them in different places.

In one assay the target is T1, WNV NS2B-NS3 protease (West Nile virus, UniProt P06935).
T1 construct: some activity against the WNV NS2B-NS3 protease
Description: WNV NS2B-NS3 protease biochemical inhibition.

In a further assay the target is T2, ZIKV NS2B-NS3 protease (Zika virus, UniProt A0A024B7W1).
T2 construct: directed at the co-expressed ZIKV NS2B-NS3 protease
T2 sequence (A0A024B7W1 1503-1680): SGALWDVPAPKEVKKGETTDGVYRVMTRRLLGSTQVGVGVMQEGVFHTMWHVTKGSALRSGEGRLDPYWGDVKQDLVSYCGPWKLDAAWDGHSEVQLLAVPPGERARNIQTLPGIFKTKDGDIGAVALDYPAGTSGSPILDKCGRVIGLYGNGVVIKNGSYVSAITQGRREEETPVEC
T2 sequence (A0A024B7W1 1425-1464): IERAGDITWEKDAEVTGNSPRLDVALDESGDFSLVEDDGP
Description: ZIKV NS2B-NS3 protease biochemical FRET assay. Conditions: for Ligand efficiency (LE): Ligand efficiency = pKi / heavy atom count.

The mark [1] stands for this setting: ZIKV NS2B-NS3 Ki (uM), library 1, supplement.
The mark [2] stands for this setting: library 1, supplement, read-out: ZIKV NS2B-NS3 Ki.

T1 sequence (P06935 1424-1463): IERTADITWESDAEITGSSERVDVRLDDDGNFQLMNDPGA
T1 sequence (P06935 1502-1679): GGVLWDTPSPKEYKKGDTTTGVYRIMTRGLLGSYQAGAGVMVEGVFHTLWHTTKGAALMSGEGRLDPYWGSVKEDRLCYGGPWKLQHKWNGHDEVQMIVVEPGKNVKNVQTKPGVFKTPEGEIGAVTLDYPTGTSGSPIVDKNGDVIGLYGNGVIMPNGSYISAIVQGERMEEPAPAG

For orientation: Ki means a measure of affinity in units of concentration, obtained from inhibition or displacement. As for `CC(C)NC(=O)[C@@H](Nc1ccc2c(c1)CN(C)C2)c1cc(Cl)cc2[nH]ncc12` [ASAP-0031156], the inhibition constant (Ki) amounted to 1.6 µM on WNV NS2B-NS3 protease and 0.48 µM on ZIKV NS2B-NS3 protease (ZIKV NS2B-NS3 Ki).
`NC[C@H]1CC[C@H](NC(=O)c2cc(Cl)cc(NC(=O)OCc3ccccc3)c2)CC1` [ASAP-0017626, NC[C@H]1CC[C@H](NC(=O)c2cc(Cl)cc(NC(=O)OCc3ccccc3)c2)CC1]: on ZIKV NS2B-NS3 protease (setting [1]), the Ki is over 89.3 µM.
Regarding `C=CC[C@@H](Nc1ccc2c(c1)CNC2)c1cc(Cl)cc2[nH]ncc12` [ASAP-0029049], at ZIKV NS2B-NS3 protease (ZIKV NS2B-NS3 Ki), the Ki worked out at 7.1 µM.
The molecule `O=C(Nc1cc(Cl)cc(C(=O)Nc2cnc3n2CCNC3)c1)OCc1ccccc1` [ASAP-0021001, O=C(Nc1cc(Cl)cc(C(=O)Nc2cnc3n2CCNC3)c1)OCc1ccccc1] yielded a Ki at ZIKV NS2B-NS3 protease (setting [1]) of over 89.3 µM.
Same read-out and setting: for `Cn1nc2c(c1NC(=O)c1cc(Cl)cc(NC(=O)OCc3ccccc3)c1)CCNC2` [ASAP-0021390, Cn1nc2c(c1NC(=O)c1cc(Cl)cc(NC(=O)OCc3ccccc3)c1)CCNC2] the value was over 89.3 µM; for `NCCCc1ccc(F)c(NC(=O)c2cc(Cl)cc(NC(=O)OCc3ccccc3)c2)c1` [ASAP-0021296, NCCCc1ccc(F)c(NC(=O)c2cc(Cl)cc(NC(=O)OCc3ccccc3)c2)c1], 5.63 µM; for `NCC1CCN(C(=O)c2cc(Cl)cc(NC(=O)OCc3ccccc3)c2)CC1` [ASAP-0017689, NCC1CCN(C(=O)c2cc(Cl)cc(NC(=O)OCc3ccccc3)c2)CC1], 87.4 µM.
The same measure, in the same setting: with `CN1CCn2nc(NC(=O)c3cc(Cl)cc(NC(=O)OCc4ccccc4)c3)cc2C1` [ASAP-0020900, CN1CCn2nc(NC(=O)c3cc(Cl)cc(NC(=O)OCc4ccccc4)c3)cc2C1] the figure was over 89.3 µM; with `O=C(Nc1cc(Cl)cc(C(=O)Nc2n[nH]c3c2CNC3)c1)OCc1ccccc1` [ASAP-0021061, O=C(Nc1cc(Cl)cc(C(=O)Nc2n[nH]c3c2CNC3)c1)OCc1ccccc1], 36.1 µM; with `NC1CCN(C(=O)c2cc(Cl)cc(NC(=O)OCc3ccccc3)c2)CC1` [ASAP-0017695, NC1CCN(C(=O)c2cc(Cl)cc(NC(=O)OCc3ccccc3)c2)CC1], over 89.3 µM.
The same measure, in the same setting: for `NC1(c2cccc(NC(=O)c3cc(Cl)cc(NC(=O)OCc4ccccc4)c3)c2)CCC1` [ASAP-0017671, NC1(c2cccc(NC(=O)c3cc(Cl)cc(NC(=O)OCc4ccccc4)c3)c2)CCC1] the value was over 89.3 µM; for `NCc1nc(CNC(=O)c2cc(Cl)cc(NC(=O)OCc3ccccc3)c2)cs1` [ASAP-0021116, NCc1nc(CNC(=O)c2cc(Cl)cc(NC(=O)OCc3ccccc3)c2)cs1], over 89.3 µM.
As to `C[C@@H](N)c1ccc(NC(=O)c2cc(Cl)cc(NC(=O)OCc3ccccc3)c2)cc1` [ASAP-0017733, C[C@@H](N)c1ccc(NC(=O)c2cc(Cl)cc(NC(=O)OCc3ccccc3)c2)cc1 ¦&1:1¦], the “ZIKV NS2B-NS3 pKi” value on ZIKV NS2B-NS3 protease (library 1, supplement) was found to be 4.88. Further, the inhibition constant Ki at ZIKV NS2B-NS3 protease (setting [2]) is 13.1 µM.
On ZIKV NS2B-NS3 protease (setting [1]), `NCCCc1ccnc(NC(=O)c2cc(Cl)cc(NC(=O)OCc3ccccc3)c2)c1` [ASAP-0021210, NCCCc1ccnc(NC(=O)c2cc(Cl)cc(NC(=O)OCc3ccccc3)c2)c1] gave a Ki of 16.5 µM.
Same read-out and setting: for `NCc1ccc(CNC(=O)c2cc(Cl)cc(NC(=O)OCc3ccccc3)c2)c(F)c1` [ASAP-0021676, NCc1ccc(CNC(=O)c2cc(Cl)cc(NC(=O)OCc3ccccc3)c2)c(F)c1] the value was 29.5 µM.
As to `O=C(Nc1cc(Cl)cc(C(=O)Nc2cccc3c2CNC3)c1)OCc1ccccc1` [ASAP-0021189, O=C(Nc1cc(Cl)cc(C(=O)Nc2cccc3c2CNC3)c1)OCc1ccccc1], the Ki at ZIKV NS2B-NS3 protease (setting [1]) is 67.8 µM.
Still for that read-out and setting: with `O=C(Nc1cc(Cl)cc(C(=O)Nc2ccnc(OC3CNC3)c2)c1)OCc1ccccc1` [ASAP-0021594, O=C(Nc1cc(Cl)cc(C(=O)Nc2ccnc(OC3CNC3)c2)c1)OCc1ccccc1] the figure was 59.3 µM.
For the molecule `NCc1cccc(NC(=O)c2cc(Cl)cc(NC(=O)OCc3ccccc3)c2)c1` [ASAP-0016806], the “Ligand efficiency (LE)” value on ZIKV NS2B-NS3 protease turned out to be 0.259. The molecule further displayed a Ki at ZIKV NS2B-NS3 protease (ZIKV NS2B-NS3 Ki) of 4.3 µM.
Take `O=C(Nc1cc(Cl)cc(C(=O)NC[C@@H]2CCNC3(CC3)C2)c1)OCc1ccccc1` [ASAP-0021400, O=C(Nc1cc(Cl)cc(C(=O)NC[C@@H]2CCNC3(CC3)C2)c1)OCc1ccccc1 ¦&1:13¦]: the “ZIKV NS2B-NS3 pKi” value at ZIKV NS2B-NS3 protease (library 1, supplement) is recorded as under 4.05. Also, the Ki on ZIKV NS2B-NS3 protease (setting [2]) was over 89.3 µM.
The molecule `NCCc1cccc(NC(=O)c2cc(Cl)cc(NC(=O)OCc3ccccc3)c2)c1` [ASAP-0017670, NCCc1cccc(NC(=O)c2cc(Cl)cc(NC(=O)OCc3ccccc3)c2)c1] came in with a Ki on ZIKV NS2B-NS3 protease (setting [1]) of 3.51 µM.
As for `O=C(Nc1cc(Cl)cc(C(=O)NC2([C@H]3CCNC3)CC2)c1)OCc1ccccc1` [ASAP-0021452, O=C(Nc1cc(Cl)cc(C(=O)NC2([C@H]3CCNC3)CC2)c1)OCc1ccccc1 ¦&1:13¦], the “ZIKV NS2B-NS3 pKi” value at ZIKV NS2B-NS3 protease (library 1, supplement) is under 4.05. The Ki at ZIKV NS2B-NS3 protease (setting [2]) is over 89.3 µM.
Take `CNCc1cccc(NC(=O)c2cc(Cl)cc(NC(=O)OCc3ccccc3)c2)c1` [ASAP-0021616, CNCc1cccc(NC(=O)c2cc(Cl)cc(NC(=O)OCc3ccccc3)c2)c1]: the inhibitory constant (Ki) on ZIKV NS2B-NS3 protease (setting [1]) was 17.6 µM.
On to `NCc1ccc(F)c(NC(=O)c2cc(Cl)cc(NC(=O)OCc3ccccc3)c2)c1` [ASAP-0021403, NCc1ccc(F)c(NC(=O)c2cc(Cl)cc(NC(=O)OCc3ccccc3)c2)c1], for which, on ZIKV NS2B-NS3 protease (ZIKV NS2B-NS3 pKi, library 1, supplement), the Ki was 3.89 µM.
`NC[C@H]1CC[C@H](CNC(=O)c2cc(Cl)cc(NC(=O)OCc3ccccc3)c2)CC1` [ASAP-0017744, NC[C@H]1CC[C@H](CNC(=O)c2cc(Cl)cc(NC(=O)OCc3ccccc3)c2)CC1] had a Ki on ZIKV NS2B-NS3 protease (setting [1]) of 23.1 µM.
The term inhibition denotes the change of the read-out against control, counted positive when it falls. Regarding `CN(C)Cc1ccc(C(=O)Nc2cc(Cl)cc(C(=O)NC(C)(C)CO)c2)[nH]1` [ASAP-0015373], the inhibition at 100 µM on ZIKV NS2B-NS3 protease (read-out: inhibition in biochemical assay) turned out to be 30%.
As to `NC[C@]1(F)C[C@@H](NC(=O)c2cc(Cl)cc(NC(=O)OCc3ccccc3)c2)C1` [ASAP-0021480, NC[C@]1(F)C[C@@H](NC(=O)c2cc(Cl)cc(NC(=O)OCc3ccccc3)c2)C1], at ZIKV NS2B-NS3 protease (setting [1]), the Ki was found to be 61.6 µM.
The same measure, in the same setting: with `NCc1nccc(NC(=O)c2cc(Cl)cc(NC(=O)OCc3ccccc3)c2)n1` [ASAP-0017603, NCc1nccc(NC(=O)c2cc(Cl)cc(NC(=O)OCc3ccccc3)c2)n1] the figure was over 89.3 µM; with `O=C(Nc1cc(Cl)cc(C(=O)Nc2nc3c(s2)CCNC3)c1)OCc1ccccc1` [ASAP-0021029, O=C(Nc1cc(Cl)cc(C(=O)Nc2nc3c(s2)CCNC3)c1)OCc1ccccc1], 48 µM.
`NCc1cccc(NC(=O)c2cc(Cl)cc3[nH]ncc23)c1` [ASAP-0023261]: on ZIKV NS2B-NS3 protease, the “Ligand efficiency (LE)” value is recorded as 0.407. The same molecule yielded a Ki at ZIKV NS2B-NS3 protease (ZIKV NS2B-NS3 Ki) of 0.796 µM.
